# Measurements published in PMC5834214 (PLoS Pathogens, 2018).
# Like-named read-outs stand apart in the source and are kept apart here.
# Legend:
# [1] = tested on: rVSV/eGFP; assay type: cell-based, vesicular stomatitis Indiana virus
# [2] = tested on: rLCMV/eGFP; test: microbe, parasite or virus in culture; details: Mammarenavirus choriomeningitidis, Vero C1008, 48 h, read-out: IC50 (anti-LCMV, eGFP expression)
# [3] = in vitro; details: grivet
# [4] = tested on: rLCMV/eGFP; test: microbe, parasite or virus in culture; details: Mammarenavirus choriomeningitidis, A549, 48 h
# [5] = tested on: LASV Z-mediated budding; assay type: cell-based, Lassa virus
# [6] = tested on: LCMV Z-mediated budding; assay type: cell-based, lymphocytic choriomeningitis virus
# [7] = tested on: rLCMV/eGFP; assay type: cell-based, lymphocytic choriomeningitis virus
# [8] = tested on: r3JUNV/eGFP; assay type: cell-based, Junín virus
# [9] = tested on: rLCMV/eGFP; assay type: cell-based, lymphocytic choriomeningitis virus; remark: listed apart in the source
# [10] = tested on: rLCMVΔGPC/eGFP; assay type: cell-based, lymphocytic choriomeningitis virus
# [11] = tested on: rLASV/eGFP; test: microbe, parasite or virus in culture; assay type: cell-based, Lassa virus; details: Mammarenavirus lassaense, A549, 48 h, read-out: IC50 (LASV, eGFP expression)
# [12] = tested on: rLCMV/eGFP; assay type: cell-based, lymphocytic choriomeningitis virus; remark: listed apart in the source
# [13] = in vitro; details: human
# [14] = target: LCMV NP (Strep-NP) (Lymphocytic choriomeningitis virus, UniProt P09992)
# Sequence of LCMV NP (Strep-NP) (P09992 whole entry): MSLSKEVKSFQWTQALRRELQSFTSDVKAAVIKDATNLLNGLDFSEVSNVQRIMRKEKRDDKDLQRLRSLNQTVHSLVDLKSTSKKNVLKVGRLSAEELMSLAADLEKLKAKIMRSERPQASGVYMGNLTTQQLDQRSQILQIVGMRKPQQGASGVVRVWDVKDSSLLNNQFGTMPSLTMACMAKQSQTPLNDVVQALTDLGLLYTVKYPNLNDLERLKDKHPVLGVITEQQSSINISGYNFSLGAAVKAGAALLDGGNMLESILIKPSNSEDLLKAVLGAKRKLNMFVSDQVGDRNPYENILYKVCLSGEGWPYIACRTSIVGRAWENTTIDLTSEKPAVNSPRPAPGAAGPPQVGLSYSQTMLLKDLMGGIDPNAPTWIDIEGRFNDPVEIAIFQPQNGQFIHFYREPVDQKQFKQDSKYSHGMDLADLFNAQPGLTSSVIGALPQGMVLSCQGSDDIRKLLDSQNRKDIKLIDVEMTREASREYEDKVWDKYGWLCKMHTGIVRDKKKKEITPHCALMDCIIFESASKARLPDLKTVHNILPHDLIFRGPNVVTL
# [15] = target: eGFP (Aequorea victoria, UniProt P42212, F64L/H231L/S65T)
# [16] = tested on: scrLCMV/ZsG-P2A-NP; assay type: cell-based, lymphocytic choriomeningitis virus
# [17] = tested on: rLCMV/eGFP; assay type: cell-based, lymphocytic choriomeningitis virus; remark: listed apart in the source
# [18] = read-out: IC50 (anti-LCMV, eGFP expression)
Compound,Multiplication of VSV [1],IC50 [2],CC50 [3],"IC50 [4, 18]",eGFP expression in infected cells [7],JUNV multiplication [8],cell entry of LCMV [9],number of eGFP+ cells [9],reporter eGFP expression (virus RNA synthesis) [10],IC50 [11],production of infectious LCMV progeny [12],CC50 [13],other results
COc1ccc([C@@]23Oc4cc(OC)cc(OC)c4[C@]2(O)[C@H](O)[C@H](C(=O)N(C)C)[C@H]3c2ccccc2)cc1 [rocaglamide],not significantly affected,9.75 nM,100 nM,9.51 nM,dose-dependent rocaglamide inhibition of eGFP expression,strongly suppressed JUNV multiplication,neither ouabain nor rocaglamide inhibited cell entry of LCMV,negligible number of eGFP^+ cells,reduced eGFP expression,37 nM,reduced,> 1000 nM,LASV Z budding efficiency [5]: caused a reduction; LCMV Z budding efficiency [6]: caused a reduction
SPTAN1,,,,,,,,,,,,,Spectral count NP Average [14]: 4; Spectral count NP Exp. 1 [14]: 4; Spectral count NP Exp. 2 [14]: 4; Spectral count eGFP Average [15]: 0; Spectral count eGFP Exp. 1 [15]: 0; Spectral count eGFP Exp. 2 [15]: 0
C[C@@H]1O[C@@H](O[C@H]2C[C@@H](O)[C@]3(CO)[C@H]4[C@H](O)C[C@]5(C)[C@@H](C6=CC(=O)OC6)CC[C@]5(O)[C@@H]4CC[C@]3(O)C2)[C@H](O)[C@H](O)[C@H]1O [ouabain],not significantly affected,18.4 nM,70 nM,5.79 nM,strong dose-dependent inhibition of eGFP expression,strongly suppressed JUNV multiplication,neither ouabain nor rocaglamide inhibited cell entry of LCMV,reduced at all time-of-addition points compared to vehicle,did not affect reporter eGFP expression,9.34 nM,reduced,28.9 nM,IC50 ([4]; read-out: IC50 as log10 (converted)): 5.79 nM; eGFP expression intensity in infected cells [7]: did not affect eGFP expression intensity; assembly de novo of extracellular infectious virus (GP-incorporation efficiency) [16]: did not inhibit assembly de novo of extracellular infectious virus; assembly de novo of extracellular infectious virus (virus titers in TCS) [17]: did not inhibit assembly de novo of extracellular infectious virus
C[C@]12CC[C@H](O)C[C@H]1CC[C@@H]1[C@@H]2CC[C@]2(C)[C@@H](c3ccc(=O)oc3)CC[C@]12O [bufalin],,12.5 nM,73.8 nM,1.85 nM,,strongly suppressed JUNV multiplication,,,,1.66 nM,,16.4 nM,
